# Measured values published in US6251914A, “Cycloalkyl substituted imidazoles” (SmithKline Beecham Corporation, priority 1999, dated 2001).
# Counter-ions that a name gives are not always drawn.
# Target: T1, CSBP2 (Homo sapiens, UniProt Q16539)
# T1 construct: made in house; host or cells: yeast
# Experiment: CSBP Kinase Assay (32P transfer to EGFR-derived peptide T669)
# Assay type: biochemical
# Conditions: 170 uM ATP, 0.4 mM T669 peptide, 30° C., 10 min; read-out: positive inhibitory activity, IC50 in CSBP kinase assay
# Experimental: This assay measures the CSBP-catalyzed transfer of ^32 P from […] to threonine residue in an epidermal growth factor receptor (EGFR)-derived peptide (T669) with the following sequence: […] (residues 661-681). (See Gallagher et al., "Regulation of Stress Induced Cytokine Production by Pyridinyl Imidazoles: Inhibition of CSPB Kinase", BioOrganic & Medicinal Chemistry, to be published 1996).
# Kinase reactions (total volume 30 ul) contain: 25 mM Hepes buffer, pH 7.5; 10 mM MgCl2; 170 uM ATP^(1); 10 uM Na ortho vanadate; 0.4 mM T669 peptide; and 20-80 ng of yeast-expressed purified CSBP2 (see Lee et al., Nature 300, n(72), 739-746 (December 1994)). Compounds (5 ul from [6×] stock^(2)) are pre-incubated with the enzyme and peptide for 20 min. on ice prior to starting the reactions with 32P/MgATP. Reactions are incubated at 30° C. for 10 min. and stopped by adding 10 ul of 0.3 M phosphoric acid. 32P-labeled peptide is separated on phosphocellulose (Wattman, p81) filters by spotting 30 ul reaction mixture. Filters are washed 3 times with 75 mM phosphoric acid followed by 2 washes with H2 O, and counted for 32P.
# ^(2) Compounds are usually dissolved in DMSO and are diluted in 25 mM HEPES buffer to get final concentration of DMSO of 0.17%.
# T1 sequence (Q16539 whole entry): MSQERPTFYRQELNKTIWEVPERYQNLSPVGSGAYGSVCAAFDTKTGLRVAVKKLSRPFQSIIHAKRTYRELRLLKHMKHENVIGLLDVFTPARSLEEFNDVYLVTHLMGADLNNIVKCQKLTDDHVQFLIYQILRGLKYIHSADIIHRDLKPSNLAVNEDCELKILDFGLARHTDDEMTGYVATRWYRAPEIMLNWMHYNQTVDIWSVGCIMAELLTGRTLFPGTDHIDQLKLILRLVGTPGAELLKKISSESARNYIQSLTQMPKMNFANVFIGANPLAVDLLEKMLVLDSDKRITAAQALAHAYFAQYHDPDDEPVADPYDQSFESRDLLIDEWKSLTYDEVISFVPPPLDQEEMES
row,SMILES,IC50 [µM]
1,"CCOc1nccc(-c2c(-c3ccc(F)cc3)ncn2[C@H]2CC[C@H](O)CC2)n1 [Example 9, trans-1-(4-Hydroxycyclohexyl)-4-(4-fluorophenyl)-5-[(2-ethoxy)pyrimidine-4-yl]imidazole]",< 50
2,"COc1nccc(-c2c(-c3ccc(F)cc3)ncn2C2CCCC2)n1 [Example 15, 1-Cyclopentyl-4-(4-fluorophenyl)-5-(2-methoxypyrimidin-4-yl)imidazole]",< 50
3,"COc1nccc(-c2c(-c3ccc(F)cc3)ncn2C2CC2)n1 [Example 14, 1-Cyclopropyl-4-(fluorophenyl)-5-(2-methoxypyrimidin-4-yl)imidazole]",< 50
4,"COc1nccc(-c2c(-c3ccc(F)cc3)ncn2C2CCCCC2)n1 [Example 12, 1-Cyclohexyl-4-(4-fluorophenyl)-5-(2-methoxypyrimidin-4-yl)imidazole]",< 50

# Target: T2, p38 (Homo sapiens, UniProt Q16539)
# T2 construct: made in house; host or cells: yeast
# T2 sequence (Q16539 whole entry): as above
# Experiment: CSBP Kinase Assay, minor variation (activated p38, T669 peptide, 96 well plate)
# Assay type: biochemical
# Conditions: 0.17 mM ATP, 0.67 mM T669 peptide, 24 nM p38, 37° C., 25 min; read-out: positive inhibitory activity, IC50 in kinase assay (minor variation)
# Experimental: A minor variation of the above assay is shown below:
# Reactions were carried in round bottom 96 well plate (from Corning) in a […]. Reactions contained (in final concentration): 25 mM Hepes, pH7.5; 8 mM MgCl2; 0.17 mM ATP (the Km[ATP] of p38 (see Lee et al., Nature 300, n72 pg 639-746 (December 1994)); 2.5 uCi of [g-32P]ATP; 0.2 mM sodium orthovanadate; 1 mM DTT; 0.1% BSA; 10% glycerol; 0.67 mM T669 peptide; and 24 nM of yeast-expressed, activated and purified p38. Reactions were initiated by the addition of [gamma-32P]Mg/ATP, and incubated for 25 min. at 37° C. Inhibitors (dissolved in DMSO) were incubated with the reaction mixture on ice for 30 minutes prior to adding the 32P-ATP. Final DMSO concentration was 0.16%. Reactions were terminated by adding 10 ul of 0.3 M phosphoric acid, and phosphorylated peptide was isolated from the reactions by capturing it on p81 phosphocellulose filters. Filters were washed with 75 mM phosphoric acids, and incorporated 32P was quantified using beta scintillation counter. Under these conditions, the specific activity of p38 was 400-450 pmol/pmol enzyme, and the activity was linear for up to 2 hr of incubation. The kinase activity values were obtained after subtracting values generated in the absence of substrate which were 10-15% of total values.
row,SMILES,IC50 [µM]
1,"COc1nccc(-c2c(-c3ccc(F)cc3)ncn2[C@H]2CC[C@H](OCCN(C)C)CC2)n1 [Example 18, trans-4-(4-Fuorophenyl)-1-[4-(2-(N,N-dimethylamino)ethoxy)cyclohexyl]-5-[(2-methoxy)pyrimidine-4-yl]-imidazole hydrochloride]",< 50
2,"COc1nccc(-c2c(-c3ccc(F)cc3)ncn2C2CCCCCC2)n1 [Example 16, 1-Cycloheptyl-4-(4-fluorophenyl)-5-(2-methoxypyrimidin-4-yl)imidazole]",< 50
3,"COc1nccc(-c2c(-c3ccc(F)cc3)ncn2[C@H]2CC[C@H](OCSC)CC2)n1 [Example 17, trans-4-(4-Fluorophenyl)-5-(2-methoxypyrimidin-4-yl)-1-[4-(methylthiomethoxy)cyclohexyl]imidazole]",< 50
4,"COc1nccc(-c2c(-c3ccc(F)cc3)ncn2C2CCC2)n1 [Example 13, 1-Cyclobutyl-4-(4-fluorophenyl)-5-(2-methoxypyrimidin-4-yl)imidazole]",< 50

# Tested on: IL-1 and TNF
# Experiment: not given
# Conditions: cited from earlier work
row,SMILES,inhibition of IL-1 and TNF
1,Fc1ccc(-c2nc3n(c2-c2ccncc2)CCS3)cc1 [SK&F 86002],inhibiting IL-1 and TNF
2,C[S+]([O-])c1ccc(-c2nc(-c3ccncc3)c(-c3ccc(F)cc3)[nH]2)cc1 (stereo not drawn) [SB 203580],inhibiting IL-1 and TNF

# Tested on: IL-6, IL-8, GM-CSF and COX-2
# Experiment: not given
# Conditions: cited from earlier work
row,SMILES,"synthesis of pro-inflammatory proteins including IL-6, IL-8, GM-CSF and COX-2"
1,Fc1ccc(-c2nc3n(c2-c2ccncc2)CCS3)cc1 [SK&F 86002],decrease the synthesis
2,C[S+]([O-])c1ccc(-c2nc(-c3ccncc3)c(-c3ccc(F)cc3)[nH]2)cc1 (stereo not drawn) [SB 203580],decrease the synthesis
